For one data set, the system named is RAW264.7. Description: Inhibition of LPS-induced NF-kappaB activation in mouse RAW264.7 cells transfected with luciferase reporter gene at 20 uM pretreated with compounds for 30 mins followed by LPS stimulation for 8 hrs by luciferase reporter gene assay. In kind it is cell-based. The note with it: time 8.5 hrs. In general terms: A reporter such as luciferase makes a cellular process visible.

The nature of data set [1]: Inhibition of LPS-induced NF-kappaB activation in mouse RAW264.7 cells transfected with luciferase reporter gene pretreated with compounds for 30 mins followed by LPS stimulation for 8 hrs by luciferase reporter gene assay. In kind it is cell-based.
In data set [2] the test system is BMMC. Kind of data set: Anti-osteoporosis activity in mouse BMMC cells assessed as inhibition of RANKL-induced osteoclast differentiation measured after 3 days in presence of MCSF by TRAP staining based assay. In kind it is functional, cell-based. The conditions noted are these: dose 5-15 µM, time 3.0 day.
For data set [3], the system named is BMMC. Description: Cytotoxicity against mouse BMMC cells at 5 to 15 uM measured after 72 hrs by MTT assay. In kind it is toxicity, cell-based. The note with it: dose 5-15 µM. In general terms: Tetrazolium assays rely on reduction of a dye to a coloured formazan, in cell work by metabolically active cells.
The species entered for data set [4] is Danio rerio. Description: Anti osteoporosis activity in prednisone induced Tg (ola.sp7:nlsGFP) Zebrafish model assessed as mitigation of fluorescence area reduction in zebrafish branchiostegal rays at 2.5 to 5 uM by microscopy based analysis. In kind it is functional, organism-based. The conditions noted are these: dose 2.5-5 µM.
The species named for data set [5] is Danio rerio. Description: Anti osteoporosis activity in prednisone induced Tg (ola.sp7:nlsGFP) Zebrafish model assessed as mitigation of fluorescence area reduction in zebrafish opercle at 2.5 to 5 uM by microscopy based analysis. It counts as functional, organism-based. The note with it: dose 2.5-5 µM.
The species named for data set [6] is Danio rerio. Description: Anti osteoporosis activity in prednisone induced Tg (ola.sp7:nlsGFP) Zebrafish model assessed as mitigation of fluorescence density reduction in zebrafish branchiostegal rays at 2.5 to 5 uM by microscopy based analysis. It counts as functional, organism-based. The conditions noted are these: dose 2.5-5 µM.
Data set [7] is filed under the species Danio rerio. Description: Anti osteoporosis activity in prednisone induced Tg (ola.sp7:nlsGFP) Zebrafish model assessed as mitigation of fluorescence density reduction in zebrafish opercle at 2.5 to 5 uM by microscopy based analysis. In kind it is functional, organism-based. The conditions noted are these: dose 2.5-5 µM.
For data set [8], the species on record is Danio rerio. Description: Anti osteoporosis activity in Tg (ola.sp7:nlsGFP) Zebrafish model assessed as reversal of prednisone induced alp gene inhibition 2.5 to 10 uM by real-time qPCR analysis. In kind it is functional, organism-based. The conditions noted are these: dose 2.5-10 µM.
For data set [9], the species on record is Danio rerio. Kind of data set: Anti osteoporosis activity in Tg (ola.sp7:nlsGFP) Zebrafish model assessed as reversal of prednisone induced bmp4 gene inhibition 2.5 to 10 uM by real-time qPCR analysis. In kind it is functional, organism-based. The conditions noted are these: dose 2.5-10 µM.
Data set [10] is filed under the species Danio rerio. Description: Anti osteoporosis activity in Tg (ola.sp7:nlsGFP) Zebrafish model assessed as reversal of prednisone induced bmp2a gene inhibition 2.5 to 10 uM by real-time qPCR analysis. It counts as functional, organism-based. The note with it: dose 2.5-10 µM.
The species named for data set [11] is Danio rerio. Kind of data set: Anti osteoporosis activity in prednisolone induced Tg (ola.sp7:nlsGFP) Zebrafish model assessed as upregulation of col1a2 mRNA expression at 5 uM by real-time qPCR analysis. It counts as functional, organism-based.
Data set [12] is filed under the species Danio rerio. Kind of data set: Anti osteoporosis activity in prednisolone induced Tg (ola.sp7:nlsGFP) Zebrafish model assessed as upregulation of col4a6 mRNA expression at 5 uM by real-time qPCR analysis. It counts as functional, organism-based. A general note: In qPCR the cycle at which signal appears reflects the starting amount.
The species named for data set [13] is Danio rerio. Kind of data set: Anti osteoporosis activity in prednisolone induced Tg (ola.sp7:nlsGFP) Zebrafish model assessed as upregulation of itbg5 mRNA expression at 5 uM by real-time qPCR analysis. In kind it is functional, organism-based.
For data set [14], the species on record is Danio rerio. Description: Anti osteoporosis activity in prednisolone induced Tg (ola.sp7:nlsGFP) Zebrafish model assessed as upregulation of frem2b mRNA expression at 5 uM by real-time qPCR analysis. In kind it is functional, organism-based.
The species entered for data set [15] is Danio rerio. Kind of data set: Anti osteoporosis activity in prednisolone induced Tg (ola.sp7:nlsGFP) Zebrafish model assessed as upregulation of frem2a mRNA expression at 5 uM by real-time qPCR analysis. In kind it is functional, organism-based.
For data set [16], the species on record is Danio rerio. Kind of data set: Anti osteoporosis activity in prednisolone induced Tg (ola.sp7:nlsGFP) Zebrafish model assessed as upregulation of vdrb-mRNA expression at 5 uM by real-time qPCR analysis. It counts as functional, organism-based.
Another data set concerns HEK293T. Kind of data set: Inhibition of cGAS/STING induced IFN-beta luciferase activation in HEK293T cells at 1 to 30 uM by Dual luciferase reporter assay. In kind it is cell-based. The conditions noted are these: Homo sapiens, dose 1-30 µM.
Data set [17] addresses T1, Serine/threonine-protein kinase TBK1 (Homo sapiens) (UniProt Q9UHD2).
T1 sequence (whole entry): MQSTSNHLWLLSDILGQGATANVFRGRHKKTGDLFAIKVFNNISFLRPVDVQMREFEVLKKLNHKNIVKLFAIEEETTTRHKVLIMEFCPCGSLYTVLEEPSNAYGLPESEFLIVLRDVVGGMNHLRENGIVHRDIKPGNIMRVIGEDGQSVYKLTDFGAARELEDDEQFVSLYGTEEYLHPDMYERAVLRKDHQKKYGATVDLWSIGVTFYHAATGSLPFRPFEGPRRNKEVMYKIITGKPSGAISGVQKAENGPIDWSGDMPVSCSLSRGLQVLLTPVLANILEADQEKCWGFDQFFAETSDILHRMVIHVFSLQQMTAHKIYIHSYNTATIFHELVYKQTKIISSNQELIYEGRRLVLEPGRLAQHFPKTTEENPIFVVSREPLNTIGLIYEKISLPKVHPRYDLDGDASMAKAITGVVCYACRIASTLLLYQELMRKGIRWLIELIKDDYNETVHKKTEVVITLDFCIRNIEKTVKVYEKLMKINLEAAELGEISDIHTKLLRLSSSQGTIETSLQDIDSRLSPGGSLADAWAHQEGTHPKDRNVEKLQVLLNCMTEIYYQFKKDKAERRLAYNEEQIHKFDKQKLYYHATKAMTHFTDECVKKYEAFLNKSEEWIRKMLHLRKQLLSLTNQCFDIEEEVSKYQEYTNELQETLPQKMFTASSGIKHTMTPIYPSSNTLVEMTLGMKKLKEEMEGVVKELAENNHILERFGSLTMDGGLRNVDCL
Kind of data set: Inhibition of TBK1 induced IFN-beta luciferase activation in HEK293T cells at 1 to 30 uM by Dual luciferase reporter assay. It counts as cell-based. The note with it: dose 1-30 µM.

The target in data set [18] is T2, Interferon regulatory factor 3 (Homo sapiens) (UniProt Q14653).
T2 sequence (whole entry): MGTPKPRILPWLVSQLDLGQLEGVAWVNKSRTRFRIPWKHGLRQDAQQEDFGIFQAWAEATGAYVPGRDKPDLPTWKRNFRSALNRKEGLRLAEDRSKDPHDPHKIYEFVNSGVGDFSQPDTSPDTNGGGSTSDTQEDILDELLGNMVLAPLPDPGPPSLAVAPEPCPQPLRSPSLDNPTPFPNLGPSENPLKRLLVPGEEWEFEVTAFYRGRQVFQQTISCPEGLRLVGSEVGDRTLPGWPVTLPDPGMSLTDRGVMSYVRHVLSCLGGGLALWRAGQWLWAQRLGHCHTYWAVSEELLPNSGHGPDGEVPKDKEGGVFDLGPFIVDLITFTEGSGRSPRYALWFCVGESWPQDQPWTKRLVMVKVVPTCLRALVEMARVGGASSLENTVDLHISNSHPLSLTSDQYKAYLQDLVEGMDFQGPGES
Kind of data set: Inhibition of IRF3 induced IFN-beta luciferase activation in HEK293T cells at 1 to 30 uM by Dual luciferase reporter assay. It counts as cell-based. The note with it: dose 1-30 µM.

Data set [19] relates to BMDM. Description: Downregulation of IFN-beta mRNA expression in mouse BMDM cells by real-time PCR analysis. The note with it: dose 1-30 µM. In kind it is functional, cell-based.
In data set [20] the test system is BMDM. Description: Downregulation of CXCL10 mRNA expression in mouse BMDM cells by real-time PCR analysis. It counts as functional, cell-based. The conditions noted are these: dose 1-30 µM.
Data set [21] has as its system BMDM. Kind of data set: Downregulation of TNF-alpha mRNA expression in mouse BMDM cells by real-time PCR analysis. It counts as functional, cell-based. The conditions noted are these: dose 1-30 µM.

The structures appear in SMILES notation. Active and inactive are the calls of the source. The calls are words filed in the database; no cut-off is given here.

Take `COC(=O)CC[C@@]1(C)[C@@H]2C=C(C(=O)O)CC[C@@H]21`: the inhibition result (with RAW264.7; with HEK293T; in data set [17]; in data set [18]) was “Active” each time. Also, the IC50 (commonly the concentration that gives 50% inhibition) in data set [1] came out at 14.5 µM. Moreover, the Activity result was “Dose-Dependent Effect” in the data set with BMMC [2]; “Non-Toxic” in the data set on BMMC [3]; “Dose-Dependent Effect” in the data set with BMDM [19]; “Dose-Dependent Effect” in the data set with BMDM [20]; “Dose-Dependent Effect” in the data set with BMDM [21]. The outcome in the data set filed under Danio rerio [4], in the data set listed under Danio rerio [5], in the data set filed under Danio rerio [6], in the data set listed under Danio rerio [7], in the data set filed under Danio rerio [8] and in the data set listed under Danio rerio [9] was Active. For the same compound, the result in the data set listed under Danio rerio [10], in the data set filed under Danio rerio [11], in the data set filed under Danio rerio [12], in the data set listed under Danio rerio [13], in the data set filed under Danio rerio [14] and in the data set filed under Danio rerio [15] was Active. For the same compound, in the data set listed under Danio rerio [16], the outcome was Active.
Consider `C[C@]1(C(=O)O)[C@@H]2C=C(C(=O)O)CC[C@@H]21`, for which the inhibition result with RAW264.7 is “Active”.
Same read-out and setting: in the case of `CC(C)(O)C(=O)CC[C@@]1(C)[C@@H]2C=C(C(=O)O)CC[C@@H]21` it was “Active”.
